Patent US8158621B2, “Methods of treating or preventing autoimmune diseases with 2,4-pyrimidinediamine compounds” (Rigel Pharmaceuticals, Inc., priority 2002, dated 2012)
Where two headings read alike, the source gives them in different places. Blank lines part the entries; values can stand above or below the compound they belong to.

Tests used:
Assay type in all cases: cell-based
[1] = tested on: Human Jurkat T-cells (clone N); assay: Jurkat T-cell activation (anti-TCR, CD69 upregulation)
Method in brief: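 Readout is CD69 upregulation by flow cytometry (anti-CD69-APC, 20 min at 4 °C) after 20 h anti-TCR (C305, 500 ng/ml) stimulation at 37 °C.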

[2] = tested on: cultured human mast cells (CHMC); assay: CHMC low cell density ionomycin activation: tryptase assay
[3] = tested on: cultured human mast cells (CHMC); assay: CHMC low cell density IgE activation: tryptase assay
Method in brief: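 Supernatant tryptase activity, assayed with substrate for 30 min at room temperature, served as the degranulation measure. Mast cells (1000-1500 per well depending on donor) sat 1 hr at 37° C in MT before a 30 min anti-IgE challenge at 37° C.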

[4] = Low Density, read-out: CHMC Ionomycin Tryptase
[5] = Low Density, read-out: CHMC anti-IgE Tryptase
[6] = Homo sapiens, Mast cell, Low Density, read-out: CHMC Ionomycin Tryptase
[7] = Homo sapiens, Mast cell, Low Density, read-out: CHMC anti-IgE Tryptase
[8] = low cell density, read-out: CHMC Ionomycin Tryptase
[9] = low cell density, read-out: CHMC anti-IgE Tryptase

Compound: Fc1cnc(Cl)nc1Nc1ccc2c(c1)CNCC2 [Compound R926912]
IC50 ([1]; Homo sapiens): > 10 µM | IC50 [2, 6]: > 10 µM | IC50 ([3]; Homo sapiens, Mast cell, read-out: CHMC anti-IgE Tryptase): > 10 µM

Compound: Cc1cc(Nc2nc(Cl)ncc2F)ccc1F [Compound R926921]
IC50 ([1]; Homo sapiens, Jurkat): > 10 µM | IC50 [2, 6]: > 10 µM | IC50 [3, 7]: 99 µM

Compound: Fc1cnc(Cl)nc1Nc1cccc(-c2nnn[nH]2)c1 [Compound R926853]
IC50 ([1]; Homo sapiens, Jurkat): > 10 µM | IC50 [2, 6]: > 10 µM | IC50 [3, 7]: > 10 µM

Compound: O=C(NCC(O)CO)c1cc2cc(Nc3ncc(F)c(Nc4ccc5c(c4)OCCO5)n3)ccc2o1 (centres unmarked) [Compound R926783]
IC50 [1]: 2.95 µM | IC50 ([2]; Low Density CHMC, ionomycin activation, tryptase release, read-out: CHMC Ionomycin Tryptase IC50): > 10 µM | IC50 ([3]; Low Density CHMC, anti-IgE activation, tryptase release, read-out: CHMC anti-IgE Tryptase IC50): 0.304 µM

Compound: COC(=O)c1cc(Nc2nc(Cl)ncc2F)cc(C(F)(F)F)c1 [Compound R926861]
IC50 ([1]; Homo sapiens, Jurkat): > 10 µM | IC50 [2, 6]: > 10 µM | IC50 [3, 7]: > 10 µM

Compound: COc1cc(Nc2ncc(F)c(Nc3ccc4c(c3)NC(=O)C(C)(C)O4)n2)cc(C(F)(F)F)c1 [Compound R927065]
IC50 [2, 8]: > 10 µM | IC50 [3, 9]: 0.235 µM

Compound: CC(C)NC(=O)C1Cc2cc(Nc3ncc(F)c(Nc4ccc(OC(F)(F)F)c(Cl)c4)n3)ccc2O1 (centres unmarked) [Compound R926961]
IC50 [2, 8]: > 10 µM | IC50 [3, 9]: 1.2 µM

Compound: CC1=C(Nc2ncc(F)c(Nc3ccc4c(c3)OCCO4)n2)N(c2ccccc2)CO1 [Compound R926793]
IC50 [2, 6]: > 10 µM | IC50 [3, 7]: 3.07 µM

Compound: O=C(O)C1Cc2cc(Nc3ncc(F)c(Nc4ccc(OC(F)(F)F)c(Cl)c4)n3)ccc2O1 (centres unmarked) [Compound R926957]
IC50 [2, 8]: > 10 µM | IC50 [3, 9]: 1.52 µM

Compound: CN(CCO)C(=O)C1Cc2cc(Nc3ncc(F)c(Nc4ccc(OC(F)(F)F)c(Cl)c4)n3)ccc2O1 (racemic) [Compound R926960]
IC50 [2, 8]: > 10 µM | IC50 [3, 9]: 0.399 µM

Second part, the compound after the results:

IC50 [1]: 1.09 µM | IC50 [2, 4]: > 10 µM | IC50 [3, 5]: 0.211 µM
Compound: OCCOc1cccc(Nc2ncc(F)c(Nc3ccc4c(c3)OCCCO4)n2)c1 [Compound R935186]

IC50 [1]: 16.4 µM | IC50 [2, 4]: > 10 µM | IC50 [3, 5]: 0.862 µM
Compound: CC(C)(C)C(=O)Nc1cccc(Nc2ncc(F)c(Nc3cccc(O)c3)n2)c1 [Compound R940275]

IC50 [1]: 5.34 µM | IC50 [2, 4]: > 10 µM | IC50 [3, 5]: 1.69 µM
Compound: CCOC(=O)CCn1ncc2ccc(Nc3ncc(F)c(Nc4ccc(OC(C)C)cc4)n3)cc21 [Compound R935289]

IC50 ([1]; Homo sapiens, Jurkat): 9.47 µM | IC50 [2, 6]: > 10 µM | IC50 [3, 7]: > 10 µM
Compound: O=C1COc2ccc(Nc3nc(Cl)ncc3F)nc2N1 [Compound R945298]

IC50 [1]: > 10 µM | IC50 [2, 4]: > 10 µM | IC50 [3, 5]: 3.55 µM
Compound: Oc1cccc(Nc2ncc(F)c(NCc3cccnc3)n2)c1 [Compound R945147]

IC50 [1]: > 10 µM | IC50 [2, 4]: 6.3 µM | IC50 [3, 5]: 1.38 µM
Compound: Nc1cc(Nc2ncc(F)c(Nc3ccc(Nc4ccccc4)c(N)c3)n2)ccc1Nc1ccccc1 [Compound R950125]

IC50 [2, 8]: 1.38 µM | IC50 [3, 9]: 0.072 µM
Compound: COc1cc(Nc2ncc(F)c(Nc3ccc4c(c3)NC(=O)C(C)(C)O4)n2)cc(OC)c1 [Compound R927074]

IC50 [2, 8]: > 10 µM | IC50 [3, 9]: 3.26 µM
Compound: CNC(=O)COc1cccc(Nc2ncc(F)c(Nc3ccc4c(c3)C(N(C)C(=O)CN(C)C)CCO4)n2)c1 (racemic) [Compound R950419]

IC50 [2, 8]: > 10 µM | IC50 [3, 9]: 0.429 µM
Compound: Cn1cc2ccc(Nc3ncc(F)c(Nc4ccc(Cl)c(Cl)c4)n3)cc2n1 [Compound R935444]

IC50 [2, 8]: > 10 µM | IC50 [3, 9]: 0.364 µM
Compound: CNC(=O)CCn1ncc2cc(Nc3ncc(F)c(Nc4ccc(OC)c(Cl)c4)n3)ccc21 [Compound R935462]

IC50 [2, 8]: > 10 µM | IC50 [3, 9]: 2.27 µM
Compound: Nc1cccc(Nc2nc(Nc3ccc(OC(F)(F)F)c(Cl)c3)ncc2F)n1 [Compound R927081]

IC50 [2, 8]: > 10 µM | IC50 [3, 9]: 0.614 µM
Compound: Cc1cc(Nc2ncc(F)c(Nc3ccc4c(c3)OCCO4)n2)cc(C)c1Cl [Compound R927117]

IC50 [2, 8]: 4.4 µM | IC50 [3, 9]: 3.78 µM
Compound: COc1cc(Nc2nc(Nc3ccc(CNC(=O)OC(C)(C)C)cc3)ncc2F)cc(OC)c1 [Compound R950456]

IC50 [2, 8]: 21.7 µM | IC50 [3, 9]: 1.34 µM
Compound: O=C(COc1cccc(Nc2ncc(F)c(NC3CCC3)n2)c1)NC1CC1 [Compound R945393]
